The values below are quoted from earlier work in EP0388817A2, “Use of mixed micelles and mixed micelle solutions of immunomodulators” (F. Hoffmann-La Roche AG, priority 1989, dated 1990).

For the data set the following is noted: octanol/water.
For Vitamin A, the “Verteilungskoeffizient in Octanol/Wasser” value was > 10^6. Consider Vitamin E, for which the “Verteilungskoeffizient in Octanol/Wasser” value is given as > 10^6. Take Vitamin K: the “Verteilungskoeffizient in Octanol/Wasser” value is > 10^6.
